Measurements reported in US12108762B2, “Methods of controlling crop pests using aromatic amide insect repellents, methods of making aromatic amide insect repellents, and novel aromatic amide insect repellents” (priority 2020, dated 2024).

What was measured:
Drosophila melanogaster [1] = experiment: Habituation assay (prior exposure, then olfactory and gustatory screens); type: in vivo; details: for habituation of fruit flies, overall (olfactory and gustatory assays): post-exposure; for repellency after prior exposure, gustatory assay: prior exposure 25% by weight, gustatory screen at 5 mM
Description: In the gustatory assay, the consumption of sugar (from a solution in a gel) treated at varying concentrations of the present repellent compounds was compared to the consumption of control-treated sugar. For the habituation assay, flies were tested over repeated exposures to the present repellent compounds to measure changes in behavioral preference for the compounds.
Flies were continuously monitored throughout their lifetime. In this assay, 3- to 5-day-old flies (70 male and 70 female) were selected and transferred to an empty fly food container 320 (FIG. 9). The polystyrene foam cap 310 was treated with 50 μL of 25% by weight of the present aromatic amide repellent in DMSO. A thin porous material 330 was placed around the treated cap 310, with a gap between the cap 310 and the material 330 so that the flies cannot touch the treated cap 310, but can only smell it. […] After the 20-hour period, the flies were screened in the olfactory assay and gustatory assays above. In the olfactory assay, the number of flies in the trap, the number of flies outside the trap, and the number of flies that died outside the trap were counted as described herein, and in the gustatory assay, the color of the flies' abdomens were determined and counted, as described herein.
(§1) The different assays assigned results as follows. For the single-choice olfactory assay, the numbers of flies were counted according to (1) those that entered the trap, (2) those that stayed outside the trap and lived, and (3) those that died outside the trap. For the two-choice olfactory assay, the numbers of flies were counted according to (1) those that entered the control trap, (2) those that entered the trap containing the repellent, (3) those that stayed outside of both traps and lived, and (4) those that died outside the traps. For the gustatory assay, the numbers of flies were counted according to those that had (1) a red-colored abdomen, (2) a blue-colored abdomen, (3) a purple abdomen, and (4) no added color to their abdomen. A nonparametric Mann-Whitney U test was used to compare the statistical differences between assays using DEET and the same assays using one of the present repellents for all trials.

Drosophila melanogaster [2] = experiment: Two-choice trap olfactory assay; type: in vivo
Description: (§2) The D. melanogaster assays served as a model for SWD repellency. Forty different aromatic amides were studied at a 25% concentration by weight in DMSO, and the fruit fly chemosensory behaviors in response thereto were characterized. […]
(§3) Flies were monitored throughout their life cycle. Five-day-old flies (10 male and 10 females) were selected per assay, and starved for a predetermined length of time (e.g., 20 hours). After starvation, two different assays were used to study the olfactory related responses.
FIG. 7B is a diagram of a 2-choice trap olfactory assay. Two ACV traps 110a-b were prepared as above, in a cylinder 150 from upturned 1.5 ml micro-centrifuge tubes with the tapered end trimmed away, and a pipette 120a-b inserted into the inverted micro-centrifuge tube. In the cylinder 150, one trap 110a was treated with 25 μl of DMSO (as a control) on the filter paper 135, and the other trap 110b with the 25 μl of the 25% by weight solution of the test compound in DMSO applied to the filter paper 130. 125 μl of 10% ACV, diluted with water, was placed in the bottom of the traps 110a-b. Both traps contained filter paper as prepared in the one-trap assay. All trials were screened for 24 hours, and the number of flies 105 in each trap was counted. Positions of the traps (i.e., left or right, relative to the location of the chamber 150 in the room) were randomized. The number of flies 105 in each trap 110a and 110b were counted and recorded at 4, 6 and 24 hours.
as §1

Gr33a = target: T1, Gr33a (Drosophila melanogaster, UniProt Q9VKA5); experiment: Gustatory assay with receptor-modified (Gr33a knockdown) flies; type: in vivo, fruit flies; details: post-knockdown
T1 construct: endogenous in cells; host or cells: whole living fruit flies (behavioural gustatory assay)
T1 sequence (Q9VKA5 1-475): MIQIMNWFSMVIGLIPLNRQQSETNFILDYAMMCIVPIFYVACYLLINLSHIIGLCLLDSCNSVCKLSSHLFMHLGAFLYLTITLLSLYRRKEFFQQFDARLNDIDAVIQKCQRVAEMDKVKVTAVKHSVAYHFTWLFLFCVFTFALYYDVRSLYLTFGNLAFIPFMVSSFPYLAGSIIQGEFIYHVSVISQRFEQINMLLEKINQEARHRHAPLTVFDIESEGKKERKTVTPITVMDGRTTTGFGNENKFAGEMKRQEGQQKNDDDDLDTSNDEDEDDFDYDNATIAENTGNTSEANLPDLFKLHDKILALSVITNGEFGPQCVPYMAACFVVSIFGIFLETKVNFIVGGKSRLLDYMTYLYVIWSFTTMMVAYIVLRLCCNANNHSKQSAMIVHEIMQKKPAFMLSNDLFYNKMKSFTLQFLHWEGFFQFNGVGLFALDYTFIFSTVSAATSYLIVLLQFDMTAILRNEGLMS
Description: (§4) The neurophysiological mechanisms of repellency were analyzed using receptors that are essential for DEET detection, Or83b and Gr33a. […] These receptors also play a role in the repellency of the most promising of the present aromatic amide compounds.

Or83b = target: T2, Or83b (Drosophila melanogaster, UniProt Q9VNB5); experiment: Olfactory assays with receptor-modified (Or83b knockdown) flies; type: in vivo, fruit flies
T2 construct: endogenous in cells; host or cells: whole living fruit flies (behavioural olfactory assays)
T2 sequence (Q9VNB5 1-486): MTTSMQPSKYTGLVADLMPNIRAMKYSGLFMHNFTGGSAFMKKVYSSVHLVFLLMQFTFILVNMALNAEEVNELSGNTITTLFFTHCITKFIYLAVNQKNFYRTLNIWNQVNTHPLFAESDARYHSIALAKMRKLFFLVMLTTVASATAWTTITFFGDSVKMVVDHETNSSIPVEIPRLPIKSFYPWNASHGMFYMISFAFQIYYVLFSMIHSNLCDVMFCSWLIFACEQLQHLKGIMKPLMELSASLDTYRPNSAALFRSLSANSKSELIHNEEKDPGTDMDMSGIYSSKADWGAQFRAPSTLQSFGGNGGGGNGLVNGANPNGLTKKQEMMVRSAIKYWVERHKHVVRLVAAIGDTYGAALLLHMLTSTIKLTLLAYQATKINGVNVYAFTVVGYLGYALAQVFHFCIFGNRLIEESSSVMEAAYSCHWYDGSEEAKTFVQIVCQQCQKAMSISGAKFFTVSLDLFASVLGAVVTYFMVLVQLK
Description: as §4

Drosophila melanogaster [3] = experiment: One-choice (single-trap) olfactory trap assay; type: in vivo
Description: as §2, §3
FIG. 7A is a diagram of a single-trap olfactory assay. Flies 105 were placed in a cylindrical chamber 100 containing a trap 110. The trap 110 was fashioned from an upturned 1.5 ml micro-centrifuge tube where the tapered end was trimmed away. A pipette tip 120 was cut to form a funnel and inserted into the bottom of the inverted micro-centrifuge tube 110. Then, filter paper 130 was placed between the pipette tip 120 and tip of micro-centrifuge tube 110. The pipette tip 120 was placed so that entering flies could not make physical contact with the filter paper 130. The filter paper 130 was placed in this manner so that when the filter paper 130 was treated with the repellent solution, the flies would only be able to smell at a distance and should be repelled even in the presence of an attractant.
A 25 μl sample of test compound at 25% concentration was applied to the filter paper 130 in order to provide the odor source. At the bottom of the trap 110, 125 μl of 10% apple cider vinegar (ACV) was placed as an attractant. Trials were conducted for 24 hours to visualize the number of flies 105 entering the trap 110. Typically, flies that entered the trap 110 contacted the liquid ACV and died in the ACV. Flies were counted and recorded at 4, 6, and 24 hours. No control other than DEET was used for this experiment, because it was a single trap, comparing the number of flies 105 repelled by the repellent versus the number of flies 105 interacting with the attractant (ACV).
as §1

mosquito = mosquito repellent; cited from earlier work
[4] = tested on: odorant receptor CquiOR136; details: southern house mosquito; cited from earlier work

Compound | habituation of fruit flies, overall (olfactory and gustatory assays) (Drosophila melanogaster [1]) | repellency after prior exposure, gustatory assay (Drosophila melanogaster [1]) | participation in choosing either trap (Drosophila melanogaster [2]; 25% by weight, 6 hours) | interaction with control trap in comparison with repellent-treated trap (Drosophila melanogaster [2]; 25% by weight, low participation) | trap preference (control trap versus repellent-treated trap) (Drosophila melanogaster [2]; DMSO control vs 25 μl of 25% by weight in DMSO, 6 hours) | preference for repellent-treated food source post-knockdown, gustatory assay (Gr33a) | effectiveness with receptor-modified flies, one-choice trap olfactory assay (Or83b; compared with assays with unmodified flies) | Or83b and Gr33a requirement for detection of the compound (Or83b; fruit flies, olfactory assays) | effectiveness as repellent with Or83b-modified flies above the knockdown temperature (Or83b; olfactory assays, compared with unmodified flies) | preference of receptor-modified flies for the compound, olfactory assays (Or83b; receptor-modified flies) | repellency compared with DEET, one-choice trap assay (Drosophila melanogaster [3]; 25 μl of 25% by weight in DMSO on filter paper, 10% ACV attractant, 6 hours (FIG. 10) and 24 hours (FIG. 13)) | ranking among repellents in the one-choice assay (Drosophila melanogaster [3]; one-choice trap, 25% concentration) | fly mortality (Drosophila melanogaster [3]; one-choice trap, 25% concentration, exposure in the gas phase) | fly death during the 6-hour screen (Drosophila melanogaster [3]; one-choice trap, 25% concentration, starved flies, 6 hours) | repellency after prior exposure, 2-choice olfactory assay (Drosophila melanogaster [1]; prior exposure to 25% by weight repellent (18-hour period as printed elsewhere in the source)) | duration of efficacy (mosquito) | affinity for odorant receptor [4]
CN1CCN(C(=O)c2ccccc2F)CC1 [Compound 2oE, 1-methyl-4-[o-fluorobenzoyl]piperazine] | unable to habituate | statistically similar results | less overall participation | more flies interacted with the control trap | preference for the control trap | increased preference | less effective, but statistically similar | required | significantly less effective | much higher preference | more effective than DEET | most effective repellents | relatively insignificant | some fly death | – | – | –
CCN(CC)C(=O)c1cccc(C)c1 [DEET, N,N-diethyl-m-toluamide, reference compound] | demonstrated habituation in at least one assay | significantly less repellency | – | – | – | – | – | – | – | – | – | – | – | – | statistically similar | five | showing an affinity
